Tests used:
Format in all cases: cell-based
Actinomyces viscosus = assay: Antimicrobial activity (MIC); conditions: Strain ID DSM43798; potato dextrose broth pH 3.8
[1] = system: Alicyclobacillus acidoterrestris; assay: Antimicrobial activity (MIC); conditions: Strain ID DSM 2498; potato dextrose broth pH 3.8
Alternaria alternata = assay: Antimicrobial activity (MIC); conditions: Strain ID DSM 12633; potato dextrose broth pH 3.8
Aspergillus brasiliensis = assay: Antimicrobial activity (MIC); conditions: Strain ID DSM 1988; potato dextrose broth pH 3.8
Bacillus cereus = assay: Antimicrobial activity (MIC); conditions: Strain ID DSM4490; potato dextrose broth pH 3.8
Bacillus licheniformis = assay: Antimicrobial activity (MIC); conditions: Strain ID DSM 13; potato dextrose broth pH 3.8
Botrytis cinerea = assay: Antimicrobial activity (MIC); conditions: Strain ID DSM 5145; potato dextrose broth pH 3.8
[2] = system: Brettanomyces naardenensis; assay: Antimicrobial activity (MIC); conditions: Strain ID CBS 6115; potato dextrose broth pH 3.8
Byssochlamys fulva = assay: Antimicrobial activity (MIC); conditions: Strain ID DSM 1808; potato dextrose broth pH 3.8
Campylobacter jejuni = assay: Antimicrobial activity (MIC); conditions: Strain ID DSM 4688; potato dextrose broth pH 3.8
Candida albicans = assay: Antimicrobial activity (MIC); conditions: Strain ID ATCC10231; potato dextrose broth pH 3.8
Candida parapsilosis = assay: Antimicrobial activity (MIC); conditions: Strain ID ATCC 20384; potato dextrose broth pH 3.8
[3] = system: Cladosporium cladosporioides; assay: Antimicrobial activity (MIC); conditions: Strain ID DSM19653; potato dextrose broth pH 3.8
Clostridium perfringens = assay: microbe, parasite or virus in culture; conditions: Strain ID DSM 756; potato dextrose broth pH 3.8
Clostridium sporogenes = assay: Antimicrobial activity (MIC); conditions: Strain ID ATCC 19404; potato dextrose broth pH 3.8
Corynebacterium xerosis = assay: Antimicrobial activity (MIC); conditions: Strain ID DSM 20743; potato dextrose broth pH 3.8
Cutibacterium acnes = assay: Antimicrobial activity (MIC); conditions: Strain ID DSM 1897; potato dextrose broth pH 3.8
Enterobacter cloacae = assay: Antimicrobial activity (MIC); conditions: Strain ID DSM 6234; potato dextrose broth pH 3.8
Enterococcus faecalis = assay: Antimicrobial activity (MIC); conditions: Strain ID ATCC 7080; potato dextrose broth pH 3.8
[4] = system: Fusobacterium nucleatum subsp. vincentii; assay: Antimicrobial activity (MIC); conditions: Strain ID DSM 19507; potato dextrose broth pH 3.8
[5] = system: Gluconacetobacter liquefaciens; assay: Antimicrobial activity (MIC); conditions: Strain ID DSM 5603; potato dextrose broth pH 3.8
[6] = system: Lactobacillus paracasei ssp. paracasei; assay: Antimicrobial activity (MIC); conditions: Strain ID DSM 46331; potato dextrose broth pH 3.8
[7] = system: Lactobacillus plantarum ssp. plantarum; assay: Antimicrobial activity (MIC); conditions: Strain ID DSM 20174; potato dextrose broth pH 3.8
Leuconostoc lactis = assay: Antimicrobial activity (MIC); conditions: Strain ID DSM 20202; potato dextrose broth pH 3.8
[8] = system: Leuconostoc mesenteroides ssp. mesenteroides; assay: Antimicrobial activity (MIC); conditions: Strain ID DSM 20343; potato dextrose broth pH 3.8
Listeria monocytogenes = assay: Antimicrobial activity (MIC); conditions: Strain ID DSM 20600; potato dextrose broth pH 3.8
Malassezia furfur = assay: Antimicrobial activity (MIC); conditions: Strain ID DSM 6170; potato dextrose broth pH 3.8
[9] = system: Pasteurella multocida ssp. multocida; assay: Antimicrobial activity (MIC); conditions: Strain ID DSM 16031; potato dextrose broth pH 3.8
Penicillium expansum = assay: Antimicrobial activity (MIC); conditions: Strain ID DSM 62841; potato dextrose broth pH 3.8
[10] = system: Phanerochaete chrysosporium; assay: Antimicrobial activity (MIC); conditions: Strain ID DSM 1556; potato dextrose broth pH 3.8
Porphyromonas gingivalis = assay: Antimicrobial activity (MIC); conditions: Strain ID DSM 20709; potato dextrose broth pH 3.8
Pseudomonas aeruginosa = assay: Antimicrobial activity (MIC); conditions: Strain ID DSM 1117; potato dextrose broth pH 3.8
Pseudomonas fluorescens = assay: Antimicrobial activity (MIC); conditions: Strain ID DSM50337; potato dextrose broth pH 3.8
Saccharomyces cerevisiae = assay: Antimicrobial activity (MIC); conditions: Strain ID DSM 2548; potato dextrose broth pH 3.8
[11] = system: Salmonella enterica ssp. enterica Ser. typhimurium; assay: Antimicrobial activity (MIC); conditions: Strain ID DSM 17058; potato dextrose broth pH 3.8
Staphylococcus aureus = assay: Antimicrobial activity (MIC); conditions: Strain ID DSM 2569; potato dextrose broth pH 3.8
Streptococcus mutans = assay: Antimicrobial activity (MIC); conditions: Strain ID DSM 20523; potato dextrose broth pH 3.8
Yarrowia lipolytica = assay: Antimicrobial activity (MIC); conditions: Strain ID DSM 70561; potato dextrose broth pH 3.8
Zygosaccharomyces bailii = assay: Antimicrobial activity (MIC); conditions: Strain ID DSM 70834; potato dextrose broth pH 3.8
Zygosaccharomyces rouxii = assay: Antimicrobial activity (MIC); conditions: Strain ID DSM 7525; potato dextrose broth pH 3.8

| Molecule | Minimal Inhibitory Concentration (MIC) (Actinomyces viscosus) [µg/mL] | Minimal Inhibitory Concentration (MIC) [1] [µg/mL] | Minimal Inhibitory Concentration (MIC) (Alternaria alternata) [µg/mL] | Minimal Inhibitory Concentration (MIC) (Aspergillus brasiliensis) [µg/mL] | Minimal Inhibitory Concentration (MIC) (Bacillus cereus) [µg/mL] | Minimal Inhibitory Concentration (MIC) (Bacillus licheniformis) [µg/mL] | Minimal Inhibitory Concentration (MIC) (Botrytis cinerea) [µg/mL] | Minimal Inhibitory Concentration (MIC) [2] [µg/mL] | Minimal Inhibitory Concentration (MIC) (Byssochlamys fulva) [µg/mL] | Minimal Inhibitory Concentration (MIC) (Campylobacter jejuni) [µg/mL] | Minimal Inhibitory Concentration (MIC) (Candida albicans) [µg/mL] | Minimal Inhibitory Concentration (MIC) (Candida parapsilosis) [µg/mL] | Minimal Inhibitory Concentration (MIC) [3] [µg/mL] | Minimal Inhibitory Concentration (MIC) (Clostridium perfringens) [µg/mL] | Minimal Inhibitory Concentration (MIC) (Clostridium sporogenes) [µg/mL] | Minimal Inhibitory Concentration (MIC) (Corynebacterium xerosis) [µg/mL] | Minimal Inhibitory Concentration (MIC) (Cutibacterium acnes) [µg/mL] | Minimal Inhibitory Concentration (MIC) (Enterobacter cloacae) [µg/mL] | Minimal Inhibitory Concentration (MIC) (Enterococcus faecalis) [µg/mL] | Minimal Inhibitory Concentration (MIC) [4] [µg/mL] | further results |
| --- | --- | --- | --- | --- | --- | --- | --- | --- | --- | --- | --- | --- | --- | --- | --- | --- | --- | --- | --- | --- | --- |
| C[C@@H]1O[C@@H](O[C@H]2[C@H](O[C@H]3CC[C@@]4(C)C(CC[C@]5(C)[C@@H]4CC=C4[C@H]6CC(C)(C)CC[C@]6(C(=O)O)CC[C@]45C)C3(C)CO)OC[C@H](O)[C@@H]2O[C@@H]2OC[C@H](O)[C@H](O)[C@H]2O)[C@H](O)[C@H](O)[C@H]1O (some centres unmarked) [B, Clemontanoside C [80666-65-5]] | > 80 | 140 | > 80 | > 80 | > 80 | > 80 | > 80 | > 80 | > 80 | > 80 | > 80 | > 80 | > 80 | > 80 | 80 | > 80 | > 80 | > 80 | > 80 | > 80 | Minimal Inhibitory Concentration (MIC) [5]: 40 µg/mL; Minimal Inhibitory Concentration (MIC) [6]: > 80 µg/mL; Minimal Inhibitory Concentration (MIC) [7]: 400 µg/mL; Minimal Inhibitory Concentration (MIC) (Leuconostoc lactis): > 80 µg/mL; Minimal Inhibitory Concentration (MIC) [8]: > 80 µg/mL; Minimal Inhibitory Concentration (MIC) (Listeria monocytogenes): > 80 µg/mL; Minimal Inhibitory Concentration (MIC) (Malassezia furfur): 80 µg/mL; Minimal Inhibitory Concentration (MIC) [9]: > 80 µg/mL; Minimal Inhibitory Concentration (MIC) (Penicillium expansum): >500 µg/mL; Minimal Inhibitory Concentration (MIC) [10]: > 80 µg/mL; Minimal Inhibitory Concentration (MIC) (Porphyromonas gingivalis): > 80 µg/mL; Minimal Inhibitory Concentration (MIC) (Pseudomonas aeruginosa): > 80 µg/mL; Minimal Inhibitory Concentration (MIC) (Pseudomonas fluorescens): > 80 µg/mL; Minimal Inhibitory Concentration (MIC) (Saccharomyces cerevisiae): > 80 µg/mL; Minimal Inhibitory Concentration (MIC) [11]: > 80 µg/mL; Minimal Inhibitory Concentration (MIC) (Staphylococcus aureus): > 80 µg/mL; Minimal Inhibitory Concentration (MIC) (Streptococcus mutans): > 80 µg/mL; Minimal Inhibitory Concentration (MIC) (Yarrowia lipolytica): > 80 µg/mL; Minimal Inhibitory Concentration (MIC) (Zygosaccharomyces bailii): > 80 µg/mL; Minimal Inhibitory Concentration (MIC) (Zygosaccharomyces rouxii): 500 µg/mL |
| Transsylvanoside H [C, Transsylvanoside H [174423-50-8]] | > 80 | 40 | > 80 | > 80 | > 80 | > 80 | > 80 | > 80 | > 80 | > 80 | > 80 | > 80 | > 80 | > 80 | 80 | > 80 | > 80 | > 80 | > 80 | 80 | Minimal Inhibitory Concentration (MIC) [5]: 140 µg/mL; Minimal Inhibitory Concentration (MIC) [6]: > 80 µg/mL; Minimal Inhibitory Concentration (MIC) [7]: 40 µg/mL; Minimal Inhibitory Concentration (MIC) (Leuconostoc lactis): 80 µg/mL; Minimal Inhibitory Concentration (MIC) [8]: > 80 µg/mL; Minimal Inhibitory Concentration (MIC) (Listeria monocytogenes): > 80 µg/mL; Minimal Inhibitory Concentration (MIC) (Malassezia furfur): > 80 µg/mL; Minimal Inhibitory Concentration (MIC) [9]: > 80 µg/mL; Minimal Inhibitory Concentration (MIC) (Penicillium expansum): >500 µg/mL; Minimal Inhibitory Concentration (MIC) [10]: > 80 µg/mL; Minimal Inhibitory Concentration (MIC) (Porphyromonas gingivalis): > 80 µg/mL; Minimal Inhibitory Concentration (MIC) (Pseudomonas aeruginosa): > 80 µg/mL; Minimal Inhibitory Concentration (MIC) (Pseudomonas fluorescens): > 80 µg/mL; Minimal Inhibitory Concentration (MIC) (Saccharomyces cerevisiae): > 80 µg/mL; Minimal Inhibitory Concentration (MIC) [11]: > 80 µg/mL; Minimal Inhibitory Concentration (MIC) (Staphylococcus aureus): > 80 µg/mL; Minimal Inhibitory Concentration (MIC) (Streptococcus mutans): > 80 µg/mL; Minimal Inhibitory Concentration (MIC) (Yarrowia lipolytica): > 80 µg/mL; Minimal Inhibitory Concentration (MIC) (Zygosaccharomyces bailii): > 80 µg/mL; Minimal Inhibitory Concentration (MIC) (Zygosaccharomyces rouxii): 500 µg/mL |

— EP4316461A1, “A PRESERVATIVE COMPOSITION” (BRAIN Biotech AG, priority 2022, dated 2024)
